Reference: publication PMC5207657 (Journal of the American Chemical Society, 2016)
*1 amine or outer side, *2 acyl side, *3 side chain or, on linkers, in order; H or OH if unused. Where a SMILES comes first, the peptide text is derived from it. [ ]: non-standard residue; d: D form. X1 = O=C([C@H]1CCC[C@@H]1N[*:1])[*:2]; X2 = O=C([C@H]1CNC[C@@H]1N[*:1])[*:2]; Aib = CC(C)(N)C(=O)O

Legend:
GLP-1R [1] = biological target: T1, GLP-1R (Homo sapiens, UniProt P43220); assay: GloSensor cAMP reporter assay; assay type: cell-based; details: read-out: cAMP Max Response (% GLP-1)
GLP-1R [2] = biological target: T1, GLP-1R; assay: β-arrestin-1 recruitment BRET^2 assay; details: for Emax: HEK293FT, read-out: β-Arrestin-1 Max Response (% GLP-1)
GLP-1R [3] = biological target: T1, GLP-1R; assay: cell-based; details: HEK293FT, read-out: β-Arrestin-2 Max Response (% GLP-1)
mouse pancreatic islets = details: cited from earlier work
[4] = previous studies; cited from earlier work
GLP-1R [5] = biological target: T1, GLP-1R; details: within the concentration range examined (up to 1 µM)
[6] = biological target: Human GLP-1R (glucagon-like peptide-1 receptor) (human) (UniProt P43220)
Sequence of Human GLP-1R (glucagon-like peptide-1 receptor) (human) (P43220 24-463): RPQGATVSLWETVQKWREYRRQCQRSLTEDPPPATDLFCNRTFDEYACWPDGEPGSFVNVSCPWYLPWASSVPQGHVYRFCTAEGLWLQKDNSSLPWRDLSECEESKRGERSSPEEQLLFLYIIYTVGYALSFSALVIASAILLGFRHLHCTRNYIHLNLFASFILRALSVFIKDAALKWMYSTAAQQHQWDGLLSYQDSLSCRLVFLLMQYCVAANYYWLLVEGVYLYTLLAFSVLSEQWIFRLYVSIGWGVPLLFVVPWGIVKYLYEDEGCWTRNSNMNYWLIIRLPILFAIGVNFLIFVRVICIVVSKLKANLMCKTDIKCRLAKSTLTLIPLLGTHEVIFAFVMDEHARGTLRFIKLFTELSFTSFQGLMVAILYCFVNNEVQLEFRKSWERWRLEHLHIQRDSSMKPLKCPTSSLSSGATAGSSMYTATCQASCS

T1 sequence (P43220 24-463): as above

Compound | Emax (GLP-1R [1]) [%] | Emax (GLP-1R [2]) [%] | Emax (GLP-1R [3]) [%] | β-arrestin-1 recruitment, result in words (GLP-1R [2]; within the concentration range examined (up to 1 µM)) | β-arrestin-2 recruitment, result in words (GLP-1R [5]) | cAMP production (GloSensor reporter cells), pEC50 [6] | insulin secretagogue activity compared with GLP-1 (mouse pancreatic islets) | control of blood glucose in vivo [4] | duration of glucose control relative to GLP-1 [4]
CC[C@H](C)[C@H](NC(=O)[C@H](Cc1ccccc1)NC(=O)[C@H](CCC(=O)O)NC(=O)[C@H]1CNC[C@@H]1NC(=O)[C@H](C)NC(=O)[C@H](C)NC(=O)[C@H](CCC(N)=O)NC(=O)CNC(=O)[C@H](CCC(=O)O)NC(=O)[C@H](CC(C)C)NC(=O)[C@H](Cc1ccc(O)cc1)NC(=O)[C@H](CO)NC(=O)[C@H](CO)NC(=O)[C@@H](NC(=O)[C@H](CC(=O)O)NC(=O)[C@H](CO)NC(=O)[C@@H](NC(=O)[C@H](Cc1ccccc1)NC(=O)[C@@H](NC(=O)CNC(=O)[C@H](CCC(=O)O)NC(=O)[C@H](C)NC(=O)[C@@H](N)Cc1c[nH]cn1)[C@@H](C)O)[C@@H](C)O)C(C)C)C(=O)N[C@H]1CCC[C@@H]1C(=O)N[C@@H](Cc1c[nH]c2ccccc12)C(=O)N[C@@H](CC(C)C)C(=O)N[C@H](C(=O)N[C@H]1CNC[C@@H]1C(=O)NCC(=O)N[C@@H](CCCNC(=N)N)C(=O)NCC(N)=O)C(C)C [α/β-Peptide 1] (H-HAEGTFTSDVSSYLEGQAA[X2]EFI[X1]WLV[X2]GRG-NH2) | 101 ± 1 | 88 ± 6 | 78 ± 4 |  |  |  |  |  | 
CC[C@H](C)[C@H](NC(=O)[C@H](Cc1ccccc1)NC(=O)[C@H](CCC(=O)O)NC(=O)[C@H]1CNC[C@@H]1NC(=O)[C@H](C)NC(=O)[C@H](C)NC(=O)[C@H](CCC(N)=O)NC(=O)[C@H]1CCC[C@@H]1NC(=O)[C@H](CCC(=O)O)NC(=O)[C@H](CC(C)C)NC(=O)[C@H](Cc1ccc(O)cc1)NC(=O)[C@H]1CCC[C@@H]1NC(=O)[C@H](CO)NC(=O)C(C)(C)NC(=O)[C@H](CC(=O)O)NC(=O)[C@H](CO)NC(=O)[C@@H](NC(=O)[C@H](Cc1ccccc1)NC(=O)[C@@H](NC(=O)CNC(=O)[C@H](CCC(=O)O)NC(=O)C(C)(C)NC(=O)[C@@H](N)Cc1c[nH]cn1)[C@@H](C)O)[C@@H](C)O)C(=O)N[C@H]1CCC[C@@H]1C(=O)N[C@@H](Cc1c[nH]c2ccccc12)C(=O)N[C@@H](CC(C)C)C(=O)N[C@H](C(=O)N[C@H]1CNC[C@@H]1C(=O)NCC(=O)N[C@@H](CCCNC(=N)N)C(=O)NCC(N)=O)C(C)C [α/β-Peptide 4] (H-H[Aib]EGTFTSD[Aib]S[X1]YLE[X1]QAA[X2]EFI[X1]WLV[X2]GRG-NH2) | 60 ± 5 | 6 ± 8 | 13 ± 4 | no significant recruitment | no significant recruitment |  | indistinguishable | can control blood glucose in vivo | prolonged
CC[C@H](C)[C@H](NC(=O)[C@H](Cc1ccccc1)NC(=O)[C@H](CCC(=O)O)NC(=O)[C@H]1CNC[C@@H]1NC(=O)[C@H](C)NC(=O)[C@H](C)NC(=O)[C@H](CCC(N)=O)NC(=O)[C@H]1CCC[C@@H]1NC(=O)[C@H](CCC(=O)O)NC(=O)[C@H](CC(C)C)NC(=O)[C@H](Cc1ccc(O)cc1)NC(=O)[C@H]1CCC[C@@H]1NC(=O)[C@H](CO)NC(=O)[C@@H](NC(=O)[C@H](CC(=O)O)NC(=O)[C@H](CO)NC(=O)[C@@H](NC(=O)[C@H](Cc1ccccc1)NC(=O)[C@@H](NC(=O)CNC(=O)[C@H](CCC(=O)O)NC(=O)[C@H](C)NC(=O)[C@@H](N)Cc1c[nH]cn1)[C@@H](C)O)[C@@H](C)O)C(C)C)C(=O)N[C@@H](C)C(=O)N[C@@H](Cc1c[nH]c2ccccc12)C(=O)N[C@@H](CC(C)C)C(=O)N[C@H](C(=O)N[C@@H](CCCCN)C(=O)NCC(=O)N[C@@H](CCCNC(=N)N)C(=O)NCC(N)=O)C(C)C [α/β-Peptide 8] (H-HAEGTFTSDVS[X1]YLE[X1]QAA[X2]EFIAWLVKGRG-NH2) | 96 ± 1 | 43 ± 3 | 63 ± 5 |  |  |  |  |  | 
GLP-1(7–36)NH2 (peptide) |  |  |  |  |  | -10.3 pEC50 (M) |  |  | 

More lines, main results first:

Emax (GLP-1R [1]) [%] | Emax (GLP-1R [2]) [%] | Emax (GLP-1R [3]) [%] | β-arrestin-1 recruitment, result in words (GLP-1R [2]; within the concentration range examined (up to 1 µM)) | β-arrestin-2 recruitment, result in words (GLP-1R [5]) | cAMP production (GloSensor reporter cells), pEC50 [6] | Compound | insulin secretagogue activity compared with GLP-1 (mouse pancreatic islets) | control of blood glucose in vivo [4] | duration of glucose control relative to GLP-1 [4]
97 ± 2 | 41 ± 4 | 59 ± 2 |  |  |  | CC[C@H](C)[C@H](NC(=O)[C@H](Cc1ccccc1)NC(=O)[C@H](CCC(=O)O)NC(=O)[C@H]1CNC[C@@H]1NC(=O)[C@H](C)NC(=O)[C@H](C)NC(=O)[C@H](CCC(N)=O)NC(=O)[C@H]1CCC[C@@H]1NC(=O)[C@H](CCC(=O)O)NC(=O)[C@H](CC(C)C)NC(=O)[C@H](Cc1ccc(O)cc1)NC(=O)[C@H]1CCC[C@@H]1NC(=O)[C@H](CO)NC(=O)C(C)(C)NC(=O)[C@H](CC(=O)O)NC(=O)[C@H](CO)NC(=O)[C@@H](NC(=O)[C@H](Cc1ccccc1)NC(=O)[C@@H](NC(=O)CNC(=O)[C@H](CCC(=O)O)NC(=O)[C@H](C)NC(=O)[C@@H](N)Cc1c[nH]cn1)[C@@H](C)O)[C@@H](C)O)C(=O)N[C@@H](C)C(=O)N[C@@H](Cc1c[nH]c2ccccc12)C(=O)N[C@@H](CC(C)C)C(=O)N[C@H](C(=O)N[C@@H](CCCCN)C(=O)NCC(=O)N[C@@H](CCCNC(=N)N)C(=O)NCC(N)=O)C(C)C [α/β-Peptide 9] (H-HAEGTFTSD[Aib]S[X1]YLE[X1]QAA[X2]EFIAWLVKGRG-NH2) |  |  | 
104 ± 1 | 80 ± 3 | 74 ± 4 |  |  |  | CC[C@H](C)[C@H](NC(=O)[C@H](Cc1ccccc1)NC(=O)[C@H](CCC(=O)O)NC(=O)[C@H]1CNC[C@@H]1NC(=O)[C@H](C)NC(=O)[C@H](C)NC(=O)[C@H](CCC(N)=O)NC(=O)CNC(=O)[C@H](CCC(=O)O)NC(=O)[C@H](CC(C)C)NC(=O)[C@H](Cc1ccc(O)cc1)NC(=O)[C@H]1CCC[C@@H]1NC(=O)[C@H](CO)NC(=O)[C@@H](NC(=O)[C@H](CC(=O)O)NC(=O)[C@H](CO)NC(=O)[C@@H](NC(=O)[C@H](Cc1ccccc1)NC(=O)[C@@H](NC(=O)CNC(=O)[C@H](CCC(=O)O)NC(=O)[C@H](C)NC(=O)[C@@H](N)Cc1c[nH]cn1)[C@@H](C)O)[C@@H](C)O)C(C)C)C(=O)N[C@@H](C)C(=O)N[C@@H](Cc1c[nH]c2ccccc12)C(=O)N[C@@H](CC(C)C)C(=O)N[C@H](C(=O)N[C@@H](CCCCN)C(=O)NCC(=O)N[C@@H](CCCNC(=N)N)C(=O)NCC(N)=O)C(C)C [α/β-Peptide 13] (H-HAEGTFTSDVS[X1]YLEGQAA[X2]EFIAWLVKGRG-NH2) |  |  | 
